Target: FLAGELLIN-SENSING 2 (FLS2) (Arabidopsis thaliana, UniProt Q9FL28)
Test: microscale thermophoresis
Format: binding

Chain of FLAGELLIN-SENSING 2 (FLS2) (Q9FL28 24-804): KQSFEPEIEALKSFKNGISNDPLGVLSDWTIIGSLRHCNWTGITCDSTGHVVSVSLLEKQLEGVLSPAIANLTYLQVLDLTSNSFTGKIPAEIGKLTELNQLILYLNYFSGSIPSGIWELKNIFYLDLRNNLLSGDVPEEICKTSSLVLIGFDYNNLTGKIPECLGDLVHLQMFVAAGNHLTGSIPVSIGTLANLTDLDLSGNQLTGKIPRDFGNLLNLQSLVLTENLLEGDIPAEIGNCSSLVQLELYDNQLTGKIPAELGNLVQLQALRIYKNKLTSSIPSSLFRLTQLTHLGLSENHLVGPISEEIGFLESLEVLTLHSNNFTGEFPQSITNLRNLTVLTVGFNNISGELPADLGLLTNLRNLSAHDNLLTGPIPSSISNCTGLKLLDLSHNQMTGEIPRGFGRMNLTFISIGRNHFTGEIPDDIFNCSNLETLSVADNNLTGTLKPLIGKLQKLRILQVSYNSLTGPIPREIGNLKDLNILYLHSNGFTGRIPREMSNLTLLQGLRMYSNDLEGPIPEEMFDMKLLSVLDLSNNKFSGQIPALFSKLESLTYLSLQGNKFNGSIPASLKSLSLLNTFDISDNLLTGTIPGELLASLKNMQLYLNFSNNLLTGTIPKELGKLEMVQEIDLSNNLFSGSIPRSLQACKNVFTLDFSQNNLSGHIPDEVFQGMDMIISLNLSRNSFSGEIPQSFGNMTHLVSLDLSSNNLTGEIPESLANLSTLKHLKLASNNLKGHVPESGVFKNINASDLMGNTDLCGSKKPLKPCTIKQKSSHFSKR

Molecule `C=C(C)COc1ccc2c(C)c(CC(=O)N3CCN(CC(=O)NCCN(C)C)CC3)c(=O)oc2c1C` [FIC04] has a Kd of 93.9 ± 19.5 µM.

Reference: article PMC11557590 (Nature Communications, 2024)
